Series [1] has as its target T1, Albumin (Homo sapiens, UniProt P02768). As to the kind of experiment: Binding affinity to human serum albumin by circular dichroism and UV/VIS spectroscopic method. The series is classed as ADME. The settings on record: isolated protein. (Circular dichroism is the unequal absorption of left and right circularly polarised light.)
Series [2] has as its target T1, Albumin. As to the kind of experiment: Binding affinity to human serum albumin on sepharose column by affinity chromatography. The settings on record: isolated protein. It is filed as ADME.
Series [3] concerns the target Alpha-1-acid glycoprotein 1 (Homo sapiens, UniProt P02763). As to the kind of experiment: Binding affinity to human ORM1 at 37 degC by induced circular dichroism method.
The species named for series [4] is Homo sapiens. As to the kind of experiment: Displacement of quinaldine red from human AAG by fluorescence method.
The species entered for series [5] is Homo sapiens. As to the kind of experiment: Binding affinity to human AAG at 37 degC by induced circular dichroism method.
For series [6], the target named is Alpha-1-acid glycoprotein 2 (Homo sapiens, UniProt P19652). Kind of series: Binding affinity to human ORM2 at 37 degC by induced circular dichroism method.
Sequence of Alpha-1-acid glycoprotein 2 (P19652 whole entry): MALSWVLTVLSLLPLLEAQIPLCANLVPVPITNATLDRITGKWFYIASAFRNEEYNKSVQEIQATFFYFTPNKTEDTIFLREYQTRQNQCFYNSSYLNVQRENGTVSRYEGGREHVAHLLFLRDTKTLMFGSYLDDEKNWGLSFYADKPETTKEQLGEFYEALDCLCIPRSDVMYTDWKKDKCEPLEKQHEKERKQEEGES
The species named for series [7] is Homo sapiens. Kind of series: Binding affinity to human AAG by fluorescence emission spectra.
The target of series [8] is T1, Albumin. Kind of series: Binding affinity to human serum albumin by fluorescence emission spectra. The series is classed as ADME. The settings on record: isolated protein.
The species named for series [9] is Homo sapiens. Kind of series: Binding affinity to human AAG at 23 degC by induced circular dichroism method.

T1 sequence (P02768 whole entry): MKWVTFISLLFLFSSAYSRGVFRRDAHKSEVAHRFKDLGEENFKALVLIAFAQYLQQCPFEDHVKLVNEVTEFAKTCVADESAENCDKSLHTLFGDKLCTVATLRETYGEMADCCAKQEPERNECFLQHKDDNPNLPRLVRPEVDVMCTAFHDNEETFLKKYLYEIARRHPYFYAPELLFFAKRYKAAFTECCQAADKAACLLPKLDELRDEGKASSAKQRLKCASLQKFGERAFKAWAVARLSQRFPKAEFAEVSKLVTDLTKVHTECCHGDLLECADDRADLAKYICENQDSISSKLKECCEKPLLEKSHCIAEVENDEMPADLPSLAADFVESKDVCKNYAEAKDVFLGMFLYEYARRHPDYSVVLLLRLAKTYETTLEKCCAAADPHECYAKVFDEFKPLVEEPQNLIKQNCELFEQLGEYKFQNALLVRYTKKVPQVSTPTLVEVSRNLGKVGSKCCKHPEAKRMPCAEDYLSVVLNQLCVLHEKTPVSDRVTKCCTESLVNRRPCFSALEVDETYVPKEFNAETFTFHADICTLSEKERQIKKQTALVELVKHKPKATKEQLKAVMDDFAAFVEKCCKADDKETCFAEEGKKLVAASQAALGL
Sequence of Alpha-1-acid glycoprotein 1 (P02763 whole entry): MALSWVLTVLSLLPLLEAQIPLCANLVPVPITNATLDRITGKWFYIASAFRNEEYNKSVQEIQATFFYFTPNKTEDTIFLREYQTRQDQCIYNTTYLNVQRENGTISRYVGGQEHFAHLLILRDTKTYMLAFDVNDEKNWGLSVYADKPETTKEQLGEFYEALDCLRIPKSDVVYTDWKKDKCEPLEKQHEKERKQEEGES

Turning to `CCN(CC)Cc1cc(Nc2ccnc3cc(Cl)ccc23)ccc1O.Cl`, the Ka at Albumin [1] is 6200 M⁻¹; on Albumin [2], 2 10^4/M.

In the case of `CC(=O)O[C@H]1N=C(c2ccccc2Cl)c2cc(Cl)ccc2NC1=O`, on Albumin [2], the Ka is reported as 2 10^4/M.

In the case of `CC(=O)O[C@@H]1N=C(c2ccccc2)c2cc(Cl)ccc2NC1=O`, the Ka on Albumin [2] was 8 10^4/M.

Take `CCN(CC)Cc1cc(Nc2ccnc3cc(Cl)ccc23)ccc1O.Cl.Cl.Cl`: the Ka in series [3] is on record as 5.8 10^4/M.

Consider `CC(=O)O[C@@H]1N=C(c2ccccc2Cl)c2cc(Cl)ccc2NC1=O`, for which, on Albumin [2], the Ka is 4 10^4/M.

Take `CC(=O)O[C@H]1N=C(c2ccccc2)c2cc(Cl)ccc2NC1=O`: the Ka at Albumin [2] was 1 10^4/M.

In the case of `CC#C[C@]1(O)CC[C@H]2[C@@H]3CCC4=CC(=O)CCC4=C3[C@@H](c3ccc(N(C)C)cc3)C[C@@]21C`, the Ka in the series filed under Homo sapiens [4] was 4 10^6/M.

As to `CCN(CC)CCCC(C)Nc1c2ccc(Cl)cc2nc2ccc(OC)cc12` (stereo not given), the Ka in the series listed under Homo sapiens [5] is 2.3 10^5/M.

Turning to `CCN(CC)Cc1cc(Nc2ccnc3cc(Cl)ccc23)ccc1O`, the values for the Ka in the series listed under Homo sapiens [4] and in the series filed under Homo sapiens [5] were 1.1 10^5/M and 4.8 10^4/M, respectively.

With `CN(C)CCCN1c2ccccc2Sc2ccc(Cl)cc21`, in the series listed under Homo sapiens [4], the Ka is 8.4 10^5/M.

For the compound `COc1cc(NC(C)CCCN)c2ncccc2c1` (stereo not given), the Ka in the series filed under Homo sapiens [4] is 4.2 10^5/M; in the series filed under Homo sapiens [5], 4.1 10^5/M.

For the compound `CC(C)NCC(O)COc1cccc2ccccc12` (racemic), the Ka in the series filed under Homo sapiens [4] is 1.5 10^5/M.

In the case of `CCN(CC)CCCC(C)Nc1ccnc2cc(Cl)ccc12` (stereo not given) [CHLOROQUINE], the Ka in the series listed under Homo sapiens [4] was 0.3 10^5/M; on Albumin [2], 2 10^3/M.

In the case of `OC(c1cc(C(F)(F)F)nc2c(C(F)(F)F)cccc12)C1CCCCN1` (stereo not given) [MEFLOQUINE], the Ka in the series listed under Homo sapiens [4] was 8.7 10^5/M; at Albumin [2], 8 10^4/M.

For `COc1cc(NC(C)CCCN)c2ncccc2c1.O=P(O)(O)O.O=P(O)(O)O` (stereo not given) [PRIMAQUINE PHOSPHATE], in series [3], the Ka was 8 10^5/M.

Regarding `COc1cc(NC(C)CCCN)c2ncccc2c1` (stereo not given) [PRIMAQUINE], the Ka at Albumin [2] is reported as 7 10^3/M.

As for `CCN(CC)CCCC(C)Nc1c2ccc(Cl)cc2nc2ccc(OC)cc12.Cl.Cl` (stereo not given) [QUINACRINE DIHYDROCHLORIDE], the Ka in series [6] was 3.7 10^5/M.

Regarding `CCN(CC)CCCC(C)Nc1c2ccc(Cl)cc2nc2ccc(OC)cc12` (stereo not given) [QUINACRINE], the Ka at Albumin [2] is 7 10^3/M.

As to `COc1cc(C)c2c(Oc3cccc(C(F)(F)F)c3)c(OC)cc(NC(C)CCCN)c2n1` (stereo not given) [TAFENOQUINE], the Ka at Albumin [1] was 24000 M⁻¹; in the series filed under Homo sapiens [7], 1.6 10^6/M; on Albumin [8], 3 10^5/M; in the series listed under Homo sapiens [4], 1.8 10^6/M; in the series filed under Homo sapiens [9], 1.1 10^6/M; in the series listed under Homo sapiens [5], 3.3 10^5/M. Further, the Ka at Albumin [2] is on record as 3 10^5/M.

The values above are taken from ChEMBL document CHEMBL1145548, “Selective plasma protein binding of antimalarial drugs to alpha1-acid glycoprotein” (Bioorg Med Chem, 2008).
